According to US20260265227A1, “AMIDE PRODRUGS AND USES THEREOF” (Autobahn Therapeutics, Inc., priority 2022, published 2026):

Molecular target: T1, recombinant human FAAH (rhFAAH) (Homo sapiens, UniProt O00519)
T1 construct: purchased Cayman Chemical (Ann Arbor, MI, USA)
T1 sequence (O00519 1-579): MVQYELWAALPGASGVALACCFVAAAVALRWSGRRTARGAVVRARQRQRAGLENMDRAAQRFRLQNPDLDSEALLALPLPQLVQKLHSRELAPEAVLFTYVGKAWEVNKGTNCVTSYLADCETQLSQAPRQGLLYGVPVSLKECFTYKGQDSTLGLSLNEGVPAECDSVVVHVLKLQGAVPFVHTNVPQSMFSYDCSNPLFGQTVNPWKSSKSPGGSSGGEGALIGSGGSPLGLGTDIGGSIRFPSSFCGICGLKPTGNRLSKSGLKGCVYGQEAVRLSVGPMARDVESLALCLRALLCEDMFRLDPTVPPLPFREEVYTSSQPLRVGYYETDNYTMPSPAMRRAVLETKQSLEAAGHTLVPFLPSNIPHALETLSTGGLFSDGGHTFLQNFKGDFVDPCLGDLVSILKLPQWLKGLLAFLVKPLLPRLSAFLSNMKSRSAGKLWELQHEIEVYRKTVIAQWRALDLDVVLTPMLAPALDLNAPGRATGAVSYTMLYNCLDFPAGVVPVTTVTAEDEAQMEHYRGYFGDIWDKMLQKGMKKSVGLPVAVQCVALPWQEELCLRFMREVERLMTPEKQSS
Assay: FAAH Substrate Evaluation (formation of acid metabolite from amide prodrug)
Format: biochemical
Settings: 0.5 ng/μL rhFAAH, 1 μM test compound, Tris-EDTA buffer pH 8.0, 0.1% BSA, room temperature, 0-60 minutes, LC-MS/MS
Protocol: Purified recombinant human FAAH (rhFAAH) was purchased from Cayman Chemical (Ann Arbor, MI, USA). The total volume for each incubation was 400 μL containing a final 0.5 ng/μL rhFAAH, 1 μM test compound, 1.25% ethanol or 1 μM PF-3845 (FAAH inhibitor), and 0.1% bovine serum albumin in Tris-EDTA buffer at pH 8.0). The positive control was LL-341001. The incubation was conducted at the room temperature. At 0, 5, 15, 30 and 60 minutes, an aliquot of 30 μL reaction mixtures was removed and mixed with 300 μL acetonitrile containing 5 ng/mL terfenadine and 10 ng/ml tolbutamide as internal standards to quench the reaction. The resulting mixture was centrifuged at 4000 rpm, 4° C. for 15 minutes, and 100 μL supernatant was ready for LC-MS/MS analysis to measure the formation of acid metabolite.
Acquity Ultra Performance LC system from Waters was used for sample analysis. The chromatography was performed on a reverse phase Kinetex 2.6 μm C18 column, 2.1×30 mm, 100 Å. The mobile phase A comprised of 0.1% formic acid in water and mobile phase B comprised of 0.1% formic acid in acetonitrile with a 2-min run time at the flow rate of 0.8 mL/min for the acid metabolite from positive control or a 1.5 min run time at the flow rate of 0.9 mL/min for the acid metabolite of test compounds. The mass spectrometer (API-5500 and API Q Trap 4000 Applied Biosystems/MDS SCIEX Instruments, Framingham, MA, USA) was operated under ESI positive or negative ion MRM mode.
The formation of acid metabolite was monitored and quantified using one calibration point of 1 μM. The observed rate constant (ke) for the acid metabolite formation was calculated by plotting the metabolite concentration versus time of incubation with the slope being ke and is shown in Table 1.

## C[C@H]1Cc2cc(OCCCC(F)(F)F)ccc2C=C1CN1CC(C(=O)NCCC(F)(F)F)C1 [Compound 25, (S)-1-((3-methyl-6-(4,4,4-trifluorobutoxy)-3,4-dihydronaphthalen-2-yl)methyl)-N-(3,3,3-trifluoropropyl) azetidine-3-carboxamide]
  ke (observed rate constant for the acid metabolite formation): A (ke is more than or equal to 1.0)
